Values joined by “and” are separate entries in the source; they are usually repeats but may differ in a detail not shown here. Identical values can stand only once. Like-named read-outs stand apart in the source and are kept apart here.
Assays:
CYP2A6 [1] = target: T1, CYP2A6 (Homo sapiens, UniProt P11509); conditions: 10 μM Tranylcypromine
T1 sequence (P11509 1-494): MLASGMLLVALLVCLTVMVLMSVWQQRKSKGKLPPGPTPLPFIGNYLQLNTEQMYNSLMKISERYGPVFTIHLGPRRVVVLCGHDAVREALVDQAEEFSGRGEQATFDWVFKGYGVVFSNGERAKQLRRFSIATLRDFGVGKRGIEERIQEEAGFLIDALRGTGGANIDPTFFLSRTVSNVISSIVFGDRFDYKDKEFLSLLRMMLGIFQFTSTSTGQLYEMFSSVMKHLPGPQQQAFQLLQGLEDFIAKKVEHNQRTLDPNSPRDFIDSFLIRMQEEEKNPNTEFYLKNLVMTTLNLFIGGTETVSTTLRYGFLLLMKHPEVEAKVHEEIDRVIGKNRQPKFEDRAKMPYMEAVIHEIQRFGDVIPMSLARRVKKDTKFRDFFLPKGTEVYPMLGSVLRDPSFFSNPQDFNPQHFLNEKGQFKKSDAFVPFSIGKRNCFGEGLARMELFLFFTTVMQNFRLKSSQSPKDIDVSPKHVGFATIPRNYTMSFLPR

CYP2E1 [2] = target: T2, CYP2E1 (Homo sapiens, UniProt P05181); conditions: 60 min, 100 μM, pH 7.4
T2 sequence (P05181 whole entry): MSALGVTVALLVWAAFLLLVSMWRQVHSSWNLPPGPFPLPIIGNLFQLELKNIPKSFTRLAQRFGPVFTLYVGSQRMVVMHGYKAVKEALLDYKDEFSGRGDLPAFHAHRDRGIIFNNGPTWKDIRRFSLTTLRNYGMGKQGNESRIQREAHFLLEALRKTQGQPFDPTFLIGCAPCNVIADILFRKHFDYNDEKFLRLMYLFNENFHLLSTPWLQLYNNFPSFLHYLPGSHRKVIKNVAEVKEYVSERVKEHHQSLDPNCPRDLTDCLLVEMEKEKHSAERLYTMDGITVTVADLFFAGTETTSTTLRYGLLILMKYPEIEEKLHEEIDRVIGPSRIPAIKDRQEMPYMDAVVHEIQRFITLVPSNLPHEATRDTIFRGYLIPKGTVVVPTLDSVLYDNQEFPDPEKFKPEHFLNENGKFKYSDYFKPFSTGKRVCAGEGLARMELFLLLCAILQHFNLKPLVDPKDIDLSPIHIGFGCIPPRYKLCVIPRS

CYP1A2 = target: T3, CYP1A2 (Homo sapiens, UniProt P05177); conditions: 60 min, 5 μM, pH 7.4
T3 sequence (P05177 1-516): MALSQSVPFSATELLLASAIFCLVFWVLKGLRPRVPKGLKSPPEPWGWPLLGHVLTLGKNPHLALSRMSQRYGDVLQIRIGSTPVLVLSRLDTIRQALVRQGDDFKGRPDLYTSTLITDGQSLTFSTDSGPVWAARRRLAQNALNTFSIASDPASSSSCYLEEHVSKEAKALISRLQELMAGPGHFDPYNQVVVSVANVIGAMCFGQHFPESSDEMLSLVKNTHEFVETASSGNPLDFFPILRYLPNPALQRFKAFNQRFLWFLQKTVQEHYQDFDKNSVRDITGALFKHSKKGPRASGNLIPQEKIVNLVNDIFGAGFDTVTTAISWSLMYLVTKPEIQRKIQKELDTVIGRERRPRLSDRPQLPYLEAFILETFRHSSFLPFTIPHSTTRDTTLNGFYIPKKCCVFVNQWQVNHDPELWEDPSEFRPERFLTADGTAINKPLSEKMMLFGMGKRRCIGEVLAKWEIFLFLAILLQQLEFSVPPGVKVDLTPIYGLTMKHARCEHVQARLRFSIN

CYP2C8 [3] = type: in vitro ADME; conditions: 50 μM megestrol acetate (Parent)
CYP2E1 [4] = type: in vitro ADME; conditions: 50 μM megestrol acetate (Parent)
CYP2A6 [5] = conditions: 50 μM megestrol acetate (Parent), 0.5 mg/mL pooled human liver microsomes with 1% water (no inhibitor)
CYP2B6 [6] = target: T4, CYP2B6 (Homo sapiens, UniProt P20813); conditions: 50 μM megestrol acetate (Parent), 0.5 mg/mL pooled human liver microsomes with 1% methanol (no inhibitor)
T4 sequence (P20813 1-491): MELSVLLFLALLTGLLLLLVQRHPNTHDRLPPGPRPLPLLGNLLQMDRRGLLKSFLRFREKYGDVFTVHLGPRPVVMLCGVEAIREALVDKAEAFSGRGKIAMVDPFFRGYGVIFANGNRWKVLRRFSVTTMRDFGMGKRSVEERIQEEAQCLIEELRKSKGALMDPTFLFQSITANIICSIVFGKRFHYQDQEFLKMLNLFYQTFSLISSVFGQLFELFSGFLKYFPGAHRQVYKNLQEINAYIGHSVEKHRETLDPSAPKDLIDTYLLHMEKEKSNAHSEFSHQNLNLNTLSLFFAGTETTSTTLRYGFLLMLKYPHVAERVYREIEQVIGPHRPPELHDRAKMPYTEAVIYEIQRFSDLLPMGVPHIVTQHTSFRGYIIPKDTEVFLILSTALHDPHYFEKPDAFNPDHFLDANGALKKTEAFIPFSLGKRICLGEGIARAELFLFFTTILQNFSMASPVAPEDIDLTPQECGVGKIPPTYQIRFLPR

CYP2A6 [7] = target: T1, CYP2A6; type: in vitro ADME; design: purchased BD Biosciences Discovery Labware, Woburn, Mass; host or cells: baculovirus-infected insect cells; conditions: LC/MS; 50 μM megestrol acetate (Parent), 20 pmol Human CYP2A6 + P450 Reductase + Cytochrome b5 SUPERSOMES
CYP2B6 [8] = target: T4, CYP2B6; type: in vitro ADME; design: purchased BD Biosciences Discovery Labware, Woburn, Mass; host or cells: baculovirus-infected insect cells; conditions: LC/MS; 50 μM megestrol acetate (Parent), 20 pmol Human CYP2B6 + P450 Reductase + Cytochrome b5 SUPERSOMES
CYP2C8 [9] = target: T5, CYP2C8 (Homo sapiens, UniProt P10632); type: in vitro ADME; design: purchased BD Biosciences Discovery Labware, Woburn, Mass; host or cells: baculovirus-infected insect cells; conditions: LC/MS; 50 μM megestrol acetate (Parent), 20 pmol Human CYP2C8 + P450 Reductase + Cytochrome b5 SUPERSOMES
T5 sequence (P10632 1-490): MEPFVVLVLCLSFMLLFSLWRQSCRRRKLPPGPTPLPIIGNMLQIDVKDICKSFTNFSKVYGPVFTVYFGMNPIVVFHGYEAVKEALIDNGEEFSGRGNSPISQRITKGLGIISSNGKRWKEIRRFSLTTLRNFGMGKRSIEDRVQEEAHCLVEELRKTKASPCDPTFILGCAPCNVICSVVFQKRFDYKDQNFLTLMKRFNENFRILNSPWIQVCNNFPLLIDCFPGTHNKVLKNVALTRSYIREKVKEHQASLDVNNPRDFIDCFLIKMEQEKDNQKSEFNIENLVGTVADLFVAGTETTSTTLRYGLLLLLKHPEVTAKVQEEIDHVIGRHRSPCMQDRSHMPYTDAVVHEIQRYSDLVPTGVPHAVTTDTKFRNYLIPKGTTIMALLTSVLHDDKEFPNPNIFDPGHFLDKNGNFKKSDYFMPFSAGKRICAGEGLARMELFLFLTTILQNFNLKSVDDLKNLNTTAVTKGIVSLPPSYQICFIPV

CYP2E1 [10] = target: T2, CYP2E1; type: in vitro ADME; design: purchased BD Biosciences Discovery Labware, Woburn, Mass; host or cells: baculovirus-infected insect cells; conditions: LC/MS; 50 μM megestrol acetate (Parent), 20 pmol Human CYP2E1 + P450 Reductase + Cytochrome b5 SUPERSOMES
CYP2C8 [11] = target: T5, CYP2C8; conditions: 60 min, 100 μM, pH 7.4
Description: After a 5-minute pre-incubation, NRS was added to the incubation mixtures to initiate reactions. The final incubation volume was 0.5 mL. Incubations were continued for 60 minutes. […] In these experiments, each CYP isoform-selective substrate was prepared as 100× stock solutions in the solvent listed below.
Incubation reactions for positive controls were terminated by adding 0.5 mL methanol, except for paclitaxel (CYP2C8) which was terminated by adding 0.75 mL of acetonitrile.
Specific activity for each CYP isoform was calculated based on the formation of metabolite from each CYP isoform-selective substrate.

[12] = 0.5 mg/mL pooled human liver microsomes with 100 μM Quercetin
[13] = 0.5 mg/mL pooled human liver microsomes with 0.1% DMSO (no inhibitor)
[14] = 0.5 mg/mL pooled human liver microsomes with 100 μM Diethyldithiocarbamate
[15] = 0.5 mg/mL pooled human liver microsomes with 1% water (no inhibitor)

N[C@@H]1C[C@H]1c1ccccc1 (racemic) [Tranylcypromine]
CYP2A6 activity in presence of inhibitor (CYP2A6 [1]): 18.7±0.597 pmol metabolite/minute/mg protein
Metabolite Formation Adjusted Individual (CYP2A6 [1]): 0.582 µM and 0.548 µM and 0.556 µM
Metabolite Formation Adjusted Mean ± SD (CYP2A6 [1]): 0.562 ± 0.0179 µM
Metabolite Formation Raw (CYP2A6 [1]): 0.582 µM and 0.5477 µM and 0.5561 µM
Specific Activity Individual (CYP2A6 [1]): 19.4 pmol metabolite/min/pmol protein and 18.3 pmol metabolite/min/pmol protein and 18.5 pmol metabolite/min/pmol protein
Specific Activity Mean ± SD (CYP2A6 [1]): 18.7 ± 0.597 pmol metabolite/min/pmol protein

CCN(CC)C(=S)S [DDC, Diethyldithiocarbamate]
Metabolite Formation Adjusted Mean ± SD (CYP2E1 [2]): 1.77 ± 0.0341 µM
Specific Activity Mean ± SD (CYP2E1 [2]): 58.9 ± 1.14 pmol metabolite/min/pmol protein
CYP2E1 activity in presence of inhibitor (CYP2E1 [2]; microsomes): 58.9±1.14 pmol metabolite/minute/mg protein

Cc1nc2c([nH]1)c(=O)n(C)c(=O)n2Cc1ccco1 [Furafylline]
Metabolite Formation Adjusted Mean ± SD (CYP1A2): 0.593 ± 0.0333 µM

CC(=O)O[C@]1(C(C)=O)CC[C@H]2[C@@H]3C=C(C)C4=CC(=O)CC[C@]4(C)[C@H]3CC[C@@]21C [Parent]
Area % (CYP2C8 [3]; [12]): 99.11%
Peak Area (CYP2C8 [3]; [12]): 5734.70
Area % (CYP2C8 [3]; [13]): 69.53%
Peak Area (CYP2C8 [3]; [13]): 4151.30
Area % (CYP2E1 [4]; [14]): 90.95%
Peak Area (CYP2E1 [4]; [14]): 5225.10
Area % (CYP2E1 [4]; [15]): 59.79%
Peak Area (CYP2E1 [4]; [15]): 3520.60
Area % (CYP2A6 [5]): 59.79%
Peak Area (CYP2A6 [5]): 2932.40
Area % (CYP2B6 [6]): 63.45%
Peak Area (CYP2B6 [6]): 2924.70
Area % (CYP2A6 [7]): 100.00%
Peak Area (CYP2A6 [7]): 7120.60
Area % (CYP2B6 [8]): 98.77%
Peak Area (CYP2B6 [8]): 7320.20
Area % (CYP2C8 [9]): 99.28%
Peak Area (CYP2C8 [9]): 7474.90
Area % (CYP2E1 [10]): 100.00%
Peak Area (CYP2E1 [10]): 7274.10

O=c1c(O)c(-c2ccc(O)c(O)c2)oc2cc(O)cc(O)c12 [Quercetin]
Specific Activity Mean ± SD (CYP2C8 [11]): 2.64 ± 0.250 pmol metabolite/min/pmol protein
CYP2C8 activity in presence of inhibitor (CYP2C8 [11]; microsomes): 2.64±0.250 pmol metabolite/minute/mg protein
